# Laboratory results published in US20220356170A1, “SREBP INHIBITOR COMPRISING A THIOPHENE CENTRAL RING” (Capulus Therapeutics, LLC, priority 2019, published 2022).
# Read-outs that look alike come from different tables or passages of the source.
# Columns and labels:
# [1] = In vivo pharmacokinetics, intravenous; settings: male C57 BL/6 mice, dose 2.00 mg/kg (Compound 1), 2.43 mg/kg (Compound 2); for Vd: male, C57 BL/6, mouse, iv
# Experimental: (§1) The in vivo pharmacokinetic properties of Compound 1 by both intravenous and oral administration were evaluated in male C57 BL/6 mice. The in vivo pharmacokinetic properties of Compound 2 by both intravenous and oral administration were evaluated in male C57 BL/6 mice for comparison.
# (§2) Animals were housed in cages with clean bedding. Certified rodent diet was provided. Water was available ad libitum. Environmental controls for the animal room were set to maintain a temperature of 22 to 25° C., humidity of 40-70% RH, and a 12-hour light /12-hour dark cycle. Normal healthy animals certified by the attending veterinarian were selected and acclimatized for minimum three days prior to initiation of study.
# (§3) Procedure for Blood Withdrawal: Mice were anesthetized using gaseous anesthesia. Blood samples were collected through a capillary, guided in retro-orbital plexus. At each time point, blood samples from 3 mice of each respective group were collected. The blood samples were collected in pre-labeled tubes. 0.2 to 0.3 mL of blood were collected from each mouse. After collection of the blood samples at each time point, the samples were stored on ice prior to centrifugation. Blood samples were centrifuged within 15 minutes to separate plasma. Centrifugations was done at 1540 rcf (5000 rpm) at 4° C. for 10 minutes. The plasma was separated and transferred to pre-labeled micro-centrifuge tubes and promptly frozen at −80±10° C. until bioanalysis was performed. Samples were identified by test item, group, animal number, and collection time point.
# (§4) To evaluate pharmacokinetic properties of intravenous delivery, nine male C57 BL/6 mice were administered 2.00 mg Compound 1/kg animal weight through the tail vein. The concentration of Compound 1 in the plasma of the animals was evaluated at 0.083, 0.25, 0.5, 1, 2, 4, 8, and 24 hr by taking blood samples from the mice. Compound 2 was similarly administered for comparison.
# [2] = In vivo pharmacokinetics, oral; settings: male C57 BL/6 mice
# Experimental: as §1, §2, §3
# as §4, with “oral” for “intravenous”, “10” for “2.00”, “by mouth.” for “through the tail vein.”, “at” for “at 0.083,”, “4, 6,” for “4,”, “samples.” for “samples from the mice.”
# [3] = mouse, plasma, oral, dose 10.00 mg/kg (Compound 1), 12.01 mg/kg (Compound 2)
compound,measurement,setting,value
"CC(C)(CO)c1cc(-c2csc(-c3ccc(C(=O)N4CCC(O)CC4)cc3Cl)c2)ccn1 [Compound 2, reference compound]",AUCExtra,[1],0.48%
same,Vd,"[1]; plasma, read-out: Vd",4.55 L/kg
same,Vd,"[1]; plasma, read-out: Vss",2.32 L/kg
same,AUC(0-inf),"[1]; mouse, plasma",2.82 µg·h/mL
same,AUC(0-t),"[1]; mouse, plasma",2.81 µg·h/mL
same,C0,"[1]; mouse, plasma",2.67 µg/mL
same,clearance,"[1]; mouse, plasma",0.86 L/h/kg
same,half-life,"[1]; mouse, plasma",3.67 h
same,MRT last,"[1]; mouse, plasma, read-out: MRT0-last",2.56 h
same,bioavailability,"[2]; mouse, plasma, oral vs intravenous",66.6%
same,AUC(0-inf),[2]; [3],9.3 µg·h/mL
same,AUC(0-t),[2]; [3],8.06 µg·h/mL
same,Cmax,[2]; [3],2.18 µg/mL
same,Tmax,[2]; [3],0.25 h
same,half-life,[2]; [3],9.46 h
same,MRT last,"[2]; mouse, plasma, oral, dose 10.00 mg/kg (Compound 1), 12.01 mg/kg (Compound 2), read-out: MRT0-last",6.61 h
same,AUCExtra,"[2]; oral, dose 10.00 mg/kg (Compound 1), 12.01 mg/kg (Compound 2)",13.38%
